Laboratory results published in patent publication US20260008783A1, “MODULATORS OF FSHR AND USES THEREOF” (Celmatix Inc., priority 2022, published 2026).

Molecular target: T1, Follicle Stimulating Hormone Receptor (FSHR) (Homo sapiens, UniProt P23945)
T1 construct: HA (N); expressed in transfected cells; host or cells: CHO-K1, transient transfection, pHM6 vector (CMV promoter)
T1 sequence (P23945 18-695): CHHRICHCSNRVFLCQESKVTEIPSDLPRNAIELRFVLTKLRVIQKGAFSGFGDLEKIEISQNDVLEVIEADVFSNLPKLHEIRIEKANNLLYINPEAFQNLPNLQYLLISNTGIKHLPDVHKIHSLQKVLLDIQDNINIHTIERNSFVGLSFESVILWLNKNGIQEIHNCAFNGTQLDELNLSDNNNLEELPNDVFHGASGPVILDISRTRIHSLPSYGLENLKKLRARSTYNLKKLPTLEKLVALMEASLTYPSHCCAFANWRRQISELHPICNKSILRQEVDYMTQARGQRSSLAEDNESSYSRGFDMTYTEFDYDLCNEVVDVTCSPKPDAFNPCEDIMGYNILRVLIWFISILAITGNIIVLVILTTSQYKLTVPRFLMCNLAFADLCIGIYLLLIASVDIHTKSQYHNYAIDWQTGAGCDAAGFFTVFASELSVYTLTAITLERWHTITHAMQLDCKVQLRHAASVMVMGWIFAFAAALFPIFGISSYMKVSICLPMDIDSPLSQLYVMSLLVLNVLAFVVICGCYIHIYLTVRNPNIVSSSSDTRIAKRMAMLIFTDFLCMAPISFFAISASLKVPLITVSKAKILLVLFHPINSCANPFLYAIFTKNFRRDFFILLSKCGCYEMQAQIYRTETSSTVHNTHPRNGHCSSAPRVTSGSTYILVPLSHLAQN
Assay: HTRF cAMP agonist assay, FSHR, transiently transfected CHO-K1 cells
Format: cell-based
Conditions: CHO-K1 cells transiently expressing human FSHR, read-out: IC50 FSHR LANCE CAMP
From the text: Example 17. HTRF cAMP Agonist Assay Protocol (for FSHR, TSHR, LHCGR)
Mammalian expression vectors designed to express either Follicle Stimulating Hormone Receptor (FSHR), Thyroid Stimulating Hormone Receptor (TSHR), or Luteinizing Hormone/Choriogonadotropin Receptor (LHCGR), were generated with an HA-tag on the N-terminus. All constructs were expressed under a human cytomegalovirus (CMV) immediate early enhancer and promoter using the pHM6 expression vector. The protein coding region was confirmed by sequence analysis to be in-frame and of the expected sequence, matching the following accession numbers: FSHR NM_000145, TSHR NM_000369, and LHCGR NM_000233.
HTRF cAMP assays were performed using Chinese Hamster Ovary (CHO-K1) cell lines transiently expressing human FSH, TSH, and LHCG receptors. 48 hours before the assay, cells were washed with PBS and then dissociated from tissue culture flasks with 0.25% trypsin. Dissociated cells were quenched in full media (F-12K Medium Corning REF #10-025-CV, 10% Avantor Seradigm FB Essence Cat #10803-034, 1% Penicillin/Streptomycin Cytiva HyClone Cat #SV30010) and then collected by centrifugation at 290×g for 5 min. Cells were resuspended in full media and dispensed into 150 mm cell culture dishes (Nest Scientific Cat #715001), at 2.3×10^6 cells/flask. 7 hours later, cells were transfected using Lipofectamine transfection reagent (Invitrogen Cat #18324020). Briefly, 60 μL of lipofectamine was dispensed into 2 mL of Opti-MEM (Gibco Cat #31985070) and incubated for 5 minutes at room temperature. Then, the mixture was added onto […] of DNA and incubated for another 20 minutes at room temperature. Cells were washed with warm (37° C.) PBS. 17.5 mL of Opti-MEM was dispensed onto the cells, followed by addition of the Opti-MEM/lipofectamine/DNA mixture. Cells were incubated overnight in a 37° C., 5% CO2 cell incubator. 17-19 hours later, Opti-MEM was aspirated off the cells and replaced with full media. Cells were incubated for another 24 hours in a 37° C., 5% CO2 cell incubator.
On the day of the assay, cells were washed with PBS and then dissociated from tissue culture flasks with 0.25% trypsin. Dissociated cells were quenched in full media and then collected by centrifugation at 290×g for 5 min. Cells were resuspended in PBS^+/+ (Corning REF #20-030-CV) to a concentration of 2×10^5 cells/mL. 10 μL/well of cells (2,000 cells/well) were dispensed into 384-well Corning plates (REF #3825), in triplicate. Cells were incubated at room temperature for 2 hours.
Example FSHR Modulator compounds were diluted in assay buffer (PBS^+/+, 0.05% BSA Sigma-Aldrich A3059, 500 μM IBMX Sigma-Aldrich 15879) to 3.5× the final assay concentration. 4 μL of test agonist was added to the cells and incubated for 1 hour at room temperature. 10 μL of cAMP detection reagents (LANCE Ultra cAMP Detection Kit PerkinElmer TRF0264) were dispensed onto the cells and plates were incubated for 2 hours at room temperature (cAMP detection reagents were made according to the PerkinElmer kit protocol). Plates were read on an Envision plate reader following PerkinElmer guidelines.
Raw data for all assays was transmitted directly from plate readers into a database for processing. All assay plates contained both positive and negative control wells to allow for data normalization and scaling. In agonist assays, negative control wells contained assay buffer and positive control wells contained […] positive control (10 nM Follicle Stimulating Hormone Sigma-Aldrich F4021, 50 nM Thyroid Stimulating Hormone Sigma-Aldrich 869006, 50 nM Luteinizing Hormone MyBioSource MBS5308806, for their respective receptors). All control wells contained DMSO at a final assay concentration that matched the test compound wells. […]
Percent control data were analyzed by non-linear regression with a sigmoidal dose response algorithm in the database to yield potency and efficacy data.

IC50	Compound
5.24 nM	COc1cc2ccc3c(C(=O)N4CCOCC4(C)C)nn(-c4cc(Cl)cc(Cl)c4)c3c2cc1-c1cncc(C(N)=O)c1 [Compound 6-05, 5-[1-(3,5-dichlorophenyl)-3-(3,3-dimethylmorpholine-4-carbonyl)-7-methoxy-benzo[g]indazol-8-yl]pyridine-3-carboxamide]
13.6 nM	COc1cc2ccc3c(C(=O)N(C)C(C)(C)C)nn(-c4cc(Cl)cc(Cl)c4)c3c2cc1-c1cncc(C(N)=O)c1 [Compound 6-06, N-tert-butyl-8-(5-carbamoyl-3-pyridyl)-1-(3,5-dichlorophenyl)-7-methoxy-N-methyl-benzo[g]indazole-3-carboxamide]
83.2 nM	COc1cc2ccc3c(C(=O)N4CCOCC4(C)C)nn(-c4cc(Cl)cc(Cl)c4)c3c2cc1-c1ccn(C)n1 [Compound 6-07, [1-(3,5-dichlorophenyl)-7-methoxy-8-(1-methylpyrazol-3-yl)benzo[g]indazol-3-yl]-(3,3-dimethylmorpholin-4-yl)methanone]
78.4 nM	COc1cc2ccc3c(C(=O)N(C)C(C)(C)C)nn(-c4cc(Cl)cc(Cl)c4)c3c2cc1-c1ccn(C)n1 [Compound 6-08, N-tert-butyl-1-(3,5-dichlorophenyl)-7-methoxy-N-methyl-8-(1-methylpyrazol-3-yl)benzo[g]indazole-3-carboxamide]
20.8 nM	COc1cc2c(cc1-c1cncc(C(N)=O)c1)-c1c(c(C(=O)N3CCNCC3C)nn1-c1cc(Cl)cc(Cl)c1)CC2 (stereo not drawn) [Compound 8-01, 5-[1-(3,5-dichlorophenyl)-7-methoxy-3-(2-methylpiperazine-1-carbonyl)-4,5-dihydrobenzo[g]indazol-8-yl]pyridine-3-carboxamide]
30.5 nM	COc1cc2c(cc1-c1cncc(C(N)=O)c1)-c1c(c(C(=O)N3CCNCC3(C)C)nn1-c1cc(Cl)cc(Cl)c1)CC2 [Compound 8-02]
449 nM	COc1cc2c(cc1-c1cncc(C(N)=O)c1)-c1c(c(C(=O)N3CCCNCC3)nn1-c1cc(Cl)cc(Cl)c1)CC2 [Compound 8-03, 5-[3-(1,4-diazepane-1-carbonyl)-1-(3,5-dichlorophenyl)-7-methoxy-4,5-dihydrobenzo[g]indazol-8-yl]pyridine-3-carboxamide]
28.3 nM	COc1cc2c(cc1-c1cncc(C(N)=O)c1)-c1c(c(C(=O)N3CCCNCC3(C)C)nn1-c1cc(Cl)cc(Cl)c1)CC2 [Compound 8-04, 5-[1-(3,5-dichlorophenyl)-3-(2,2-dimethyl-1,4-diazepane-1-carbonyl)-7-methoxy-4,5-dihydrobenzo[g]indazol-8-yl]pyridine-3-carboxamide]
9.79 nM	COc1cc2c(cc1-c1cncc(C(N)=O)c1)-c1c(c(C(=O)N3CCC(=O)NCC3(C)C)nn1-c1cc(Cl)cc(Cl)c1)CC2 [Compound 8-04A, 5-[1-(3,5-dichlorophenyl)-3-(2,2-dimethyl-5-oxo-1,4-diazepane-1-carbonyl)-7-methoxy-4,5-dihydrobenzo[g]indazol-8-yl]pyridine-3-carboxamide]
60.3 nM	COc1cc2c(cc1-c1cncc(C(N)=O)c1)-c1c(c(C(=O)N3CCN(C)CC3C)nn1-c1cc(Cl)cc(Cl)c1)CC2 (stereo not drawn) [Compound 8-05, 5-[1-(3,5-dichlorophenyl)-3-(2,4-dimethylpiperazine-1-carbonyl)-7-methoxy-4,5-dihydrobenzo[g]indazol-8-yl]pyridine-3-carboxamide]
17.6 nM	COc1cc2c(cc1-c1cncc(C(N)=O)c1)-c1c(c(C(=O)N3CCN(C)CC3(C)C)nn1-c1cc(Cl)cc(Cl)c1)CC2 [Compound 8-06]
115 nM	COc1cc2c(cc1-c1cncc(C(N)=O)c1)-c1c(c(C(=O)N3CCCN(C)CC3)nn1-c1cc(Cl)cc(Cl)c1)CC2 [Compound 8-07, 5-[1-(3,5-dichlorophenyl)-7-methoxy-3-(4-methyl-1,4-diazepane-1-carbonyl)-4,5-dihydrobenzo[g]indazol-8-yl]pyridine-3-carboxamide]
3040 nM	COc1cc2c(cc1-c1cncc(C#N)c1)-c1c(c(C(=O)N3CCCN(C)CC3)nn1-c1cc(Cl)cc(Cl)c1)CC2 [Compound 8-07A, 5-(1-(3,5-dichlorophenyl)-7-methoxy-3-(4-methyl-1,4-diazepane-1-carbonyl)-4,5-dihydro-1H-benzo[g]indazol-8-yl)nicotinonitrile]
4.44 nM	COc1cc2c(cc1-c1cncc(C(N)=O)c1)-c1c(c(C(=O)N3CCN(C#N)CC3C)nn1-c1cc(Cl)cc(Cl)c1)CC2 (stereo not drawn) [Compound 8-09, 5-[3-(4-cyano-2-methyl-piperazine-1-carbonyl)-1-(3,5-dichlorophenyl)-7-methoxy-4,5-dihydrobenzo[g]indazol-8-yl]pyridine-3-carboxamide]
991 nM	COc1cc2c(cc1-c1cncc(C(N)=O)c1)-c1c(c(C(=O)N(C)C(C)(C)CO)nn1-c1cc(Cl)cc(Cl)c1)CC2 [Compound 8-10]
244 nM	COc1cc2c(cc1-c1cncc(C(N)=O)c1)-c1c(c(C(=O)N3CCC(S(C)(=O)=O)CC3C)nn1-c1cc(Cl)cc(Cl)c1)CC2 (stereo not drawn) [Compound 8-13, 5-[1-(3,5-dichlorophenyl)-7-methoxy-3-(2-methyl-4-methylsulfonyl-piperidine-1-carbonyl)-4,5-dihydrobenzo[g]indazol-8-yl]pyridine-3-carboxamide]
3.47 nM	COc1cc2c(cc1-c1cncc(C(N)=O)c1)-c1c(c(C(=O)N3CCCC3(C)C)nn1-c1cc(Cl)cc(Cl)c1)CC2 [Compound 8-14]
33.2 nM	COc1cc2c(cc1-c1cncc(C(N)=O)c1)-c1c(c(C(=O)N3C4CCC3CN(C)C4)nn1-c1cc(Cl)cc(Cl)c1)CC2 [Compound 8-15]
79.3 nM	COc1cc2c(cc1-c1cncc(C(N)=O)c1)-c1c(c(C(=O)N3C4CC3CN(C(=O)OC(C)(C)C)C4)nn1-c1cc(Cl)cc(Cl)c1)CC2 [Compound 8-16A]
769 nM	COc1cc2c(cc1-c1cncc(C(N)=O)c1)-c1c(c(C(=O)N3C4CNCC3C4)nn1-c1cc(Cl)cc(Cl)c1)CC2 [Compound 8-16B]
70.4 nM	COc1cc2c(cc1-c1cncc(C(N)=O)c1)-c1c(c(C(=O)N3C4CC3CN(C)C4)nn1-c1cc(Cl)cc(Cl)c1)CC2 [Compound 8-16]
115 nM	COc1cc2c(cc1-c1cncc(C(N)=O)c1)-c1c(c(C(=O)N3CC4CCC3CN4C)nn1-c1cc(Cl)cc(Cl)c1)CC2 (stereo not drawn) [Compound 8-17]
18 nM	COc1cc2c(cc1-c1cncc(C(N)=O)c1)-c1c(c(C(=O)N3[C@@H]4CC[C@H]3CN(C)C4)nn1-c1cc(Cl)cc(Cl)c1)CC2 [Compound 8-18]
5.38 nM	COc1cc2c(cc1-c1cncc(C(N)=O)c1)-c1c(c(C(=O)N3[C@H](C)CNC[C@@H]3C)nn1-c1cc(Cl)cc(Cl)c1)CC2 [Compound 8-21]
